In patent US20090175852A1, “IMIDAZOPYRAZINES AS PROTEIN KINASE INHIBITORS” (Schering Corporation, priority 2006, published 2009):

How the values were obtained:
Mk2 = Mk2 (Homo sapiens, UniProt P49137); assay: Mk2 kinase inhibition (Table 4 activity data); assay type: biochemical
CHK-1 = target: T1, CHK-1 (Homo sapiens, UniProt O14757); assay: CHK-1 kinase inhibition (Table 4 activity data); assay type: biochemical
T1 sequence (O14757 1-476): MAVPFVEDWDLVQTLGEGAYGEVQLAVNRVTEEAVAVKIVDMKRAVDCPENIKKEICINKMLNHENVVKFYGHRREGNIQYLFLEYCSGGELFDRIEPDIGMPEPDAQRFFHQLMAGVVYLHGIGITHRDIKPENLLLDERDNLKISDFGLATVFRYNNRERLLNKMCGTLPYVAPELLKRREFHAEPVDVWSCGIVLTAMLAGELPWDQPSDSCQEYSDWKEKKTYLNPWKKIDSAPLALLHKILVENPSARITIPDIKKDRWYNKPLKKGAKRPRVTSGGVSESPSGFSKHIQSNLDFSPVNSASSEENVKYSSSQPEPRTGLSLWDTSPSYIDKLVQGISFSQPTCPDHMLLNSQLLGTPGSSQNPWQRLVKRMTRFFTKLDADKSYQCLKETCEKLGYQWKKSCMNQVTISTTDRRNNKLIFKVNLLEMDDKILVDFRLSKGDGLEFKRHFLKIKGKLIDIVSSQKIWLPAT

Chain of Mk2 (P49137 whole entry, species assumed): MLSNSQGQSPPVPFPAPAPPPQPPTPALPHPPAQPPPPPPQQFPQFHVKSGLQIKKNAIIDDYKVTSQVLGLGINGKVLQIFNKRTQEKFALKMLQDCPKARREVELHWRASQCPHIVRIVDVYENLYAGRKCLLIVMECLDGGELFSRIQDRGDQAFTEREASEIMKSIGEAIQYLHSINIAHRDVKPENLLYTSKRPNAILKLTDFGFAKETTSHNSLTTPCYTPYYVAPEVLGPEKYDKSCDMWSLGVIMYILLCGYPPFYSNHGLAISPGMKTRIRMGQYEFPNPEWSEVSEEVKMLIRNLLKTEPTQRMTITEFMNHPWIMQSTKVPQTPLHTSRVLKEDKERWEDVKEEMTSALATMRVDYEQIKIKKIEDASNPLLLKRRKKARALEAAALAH

Compound | IC50 (Mk2) [µM] | IC50 (CHK-1) [µM]
NC(=O)c1cnc(N[C@H]2CC[C@H](N)CC2)c2nc(-c3ccc(Cl)cc3)cn12 [Compound 12] | 0.06 | 
N#Cc1cccc(-c2cn3c(C#N)cnc(N[C@H]4CCCNC4)c3n2)c1 [Compound 44] |  | 0.87
NC(=O)c1cccc(-c2cn3c(C(N)=O)cnc(N[C@H]4CCCNC4)c3n2)c1 [Compound 39] | 0.81 | 0.055
NC(=O)c1cnc(N[C@H]2CCCNC2)c2nc(-c3ccc(Cl)cc3)cn12 [Compound 5] | 0.65 | 0.039
